Test results: patent US7923461B2, “TNF-α production inhibitors” (Santen Pharmaceutical Co., Ltd., priority 2000, dated 2011)

How the values were obtained:
TNF-α production = assay: Inhibitory effects on TNF-α production induced by lipopolysaccharide (LPS) stimulation, in vivo test; set-up: species or system rat; details: Rattus norvegicus, 2 h, female rats, plasma TNF-α (ELISA) two hours after LPS, read-out: Inhibition rate (%) of TNF-α production; for inhibition in vivo at 10 mg/kg: oral administration of 10 mg/kg immediately after LPS to footpad; for inhibition in vivo at 3 mg/kg: oral administration of 3 mg/kg immediately after LPS to footpad
Protocol: Inhibitory effects on TNF-α production induced by lipopolysaccharide (LPS) stimulation were studied by in vivo tests according to the method of Tsuji et al. (Inflamm res. 46 (1997) 193-198).
Female rats (five per group), body weight of about 200 g, about eight weeks old, were used as test animals. LPS from Salmonella was dissolved in physiological saline to prepare an LPS solution (1 mg/ml). Each test substance was dissolved or uniformly suspended in a 1% methylcellulose solution to give test substance-preparation liquids.
The above-mentioned LPS solution (0.5 ml/kg) was administered to a footpad of the rat. Immediately after the LPS administration, the test substance-preparation liquid (containing 10 mg/kg or 3 mg/kg test substance) was orally administered. Two hours after the LPS administration, blood was collected from abdominal aorta and was centrifuged at 4° C. and 3000 rpm for ten minutes. TNF-α levels in the obtained plasma were measured with a rat TNF-α-specific ELISA kit. TNF-α was not observed in the plasma with respect to an LPS-non-administered group (control).
Inhibition rates of TNF-α production of the test substances were determined by the following equation. Inhibition rate (%)=[(A−B)/A]×100 A: TNF-α level in plasma of test substance-nonadministered group B: TNF-α level in plasma of test substance-administered group (Results)

Row | Compound | melting point [°C] | inhibition in vivo at 10 mg/kg (TNF-α production) [%] | inhibition in vivo at 3 mg/kg (TNF-α production) [%]
1 | O=C(NCCCc1ccncc1)N(CCC12CC3CC(CC(C3)C1)C2)Cc1cccs1 [Compound No. 1-27, 1-[2-(1-Adamantyl)ethyl]-3-[3-(4-pyridyl)propyl]-1-(2-thienyl)methylurea] | 142.5 to 144.5 | 81.3 | –
2 | O=C(NCCCc1ccncc1)N(CC=Cc1ccccc1)CCC12CC3CC(CC(C3)C1)C2 [Compound No. 1-34, 1-[2-(1-Adamantyl)ethyl]-1-cinnamyl-3-[3-(4-pyridyl)propyl]urea] | 130 to 134.5 | 70.8 | –
3 | O=C(NCCCc1ccncc1)N(CCC12CC3CC(CC(C3)C1)C2)Cc1ccco1 [Compound No. 1-42, 1-[2-(1-Adamantyl)ethyl]-1-furfuryl-3-[3-(4-pyridyl)propyl]urea] | 128 to 130 | 86.7 | –
4 | O=C(NCCCc1ccncc1)N(CCC12CC3CC(CC(C3)C1)C2)Cc1ccccc1 [Compound No. 1-43, 1-[2-(1-Adamantyl)ethyl]-1-benzyl-3-[3-(4-pyridyl)propyl]urea] | 130.5 to 135 | 67.6 | –
5 | CC(C)N(CCC12CC3CC(CC(C3)C1)C2)C(=O)NCCCc1ccncc1 [Compound No. 1-68, 1-[2-(1-Adamantyl)ethyl]-1-isopropyl-3-[3-(4-pyridyl)propyl]urea] | 132 to 134 | 79 | –
6 | O=C(NCCCc1ccncc1)N(CCC12CC3CC(CC(C3)C1)C2)C1CCCC1 [Compound No. 1-70, 1-[2-(1-Adamantyl)ethyl]-1-cyclopentyl-3-[3-(4-pyridyl)propyl]urea] | 135.5 to 137.5 | 87.9 | –

Now from value to compound, other results behind:

Row | melting point [°C] | Compound | inhibition in vivo at 10 mg/kg (TNF-α production) [%] | inhibition in vivo at 3 mg/kg (TNF-α production) [%]
7 | 123 to 125 | O=C(NCCCc1ccncc1)N(CCC12CC3CC(CC(C3)C1)C2)CC1CC1 [Compound No. 1-22, 1-[2-(1-Adamantyl)ethyl]-1-cyclopropylmethyl-3-[3-(4-pyridyl)propyl]urea] | 87 | –
8 | 107.5 to 109 | O=C(NCCCc1ccncc1)N(CCC(F)(F)F)CCC12CC3CC(CC(C3)C1)C2 [Compound No. 1-24, 1-[2-(1-Adamantyl)ethyl]-3-[3-(4-pyridyl)propyl]-1-(3,3,33-trifluoropropyl)urea] | 95.8 | –
9 | 89.5 to 93.5 | CC=CCN(CCC12CC3CC(CC(C3)C1)C2)C(=O)NCCCc1ccncc1 [Compound No. 1-25, 1-[2-(1-Adamantyl)ethyl]1-(2-butenyl)-3-[3-(4-pyridyl)propyl]urea] | 89 | –
10 | 93 to 96 | CC(C)=CCN(CCC12CC3CC(CC(C3)C1)C2)C(=O)NCCCc1ccncc1 [Compound No. 1-31, 1-[2-(1-Adamantyl)ethyl]-1-(3-methyl-2-butenyl)-3-[3-(4-pyridyl)propyl]urea] | 92.6 | –
11 | 75 to 76 | CCCCCCCCCCN(CCC12CC3CC(CC(C3)C1)C2)C(=O)NCCCc1ccncc1 [Compound No. 1-32, 1-[2-(1-Adamantyl)ethyl]-1-decyl-3-[3-(4-pyridyl)propyl]urea] | 62.4 | –
12 | 47 to 50 | CCCCCNC(=O)N(CCCc1ccncc1)CCC12CC3CC(CC(C3)C1)C2 [Compound No. 1-66, 1-[2-(1-Adamantyl)ethyl]-3-pentyl-1-[3-(4-pyridyl)propyl]urea] | 79.4 | –
13 | 99.9 to 105.2 | CCCCCN(CCC12CC3CC(CC(C3)C1)C2)C(=O)NCCCc1cccnc1 [Compound No. 1-84, 1-[2-(1-Adamantyl)ethyl]-1-pentyl-3-[3-(3-pyridyl)propyl]urea] | – | 35.5
14 | 128.5 to 129 | CCCCCN(CCC12CC3CC(CC(C3)C1)C2)C(=O)NC(C)CCc1ccncc1 (stereo not shown) [Compound No. 1-137, 1-[2-(1-Adamantyl)ethyl]-3-[1-methyl-3-(4-pyridyl)propyl]-1-pentylurea] | – | 82.1
